# Experimental data published in article PMC7671475 (Journal of Inflammation Research, 2020).
# Target: Syk (spleen tyrosine kinase) (Homo sapiens, UniProt P43405)
# Test: ADP-Glo kinase assay with Promega Syk Kinase Enzyme System
# Type: biochemical
row,IC50,SMILES
1,114 nM,"O=C(/C=C/c1ccc(O)c(O)c1)O[C@H](Cc1ccc(O)c(O)c1)C(=O)O [RosA, rosmarinic acid]"
2,160 nM,"CC1=CC(=O)CC(C)(C)[C@@]1(O)/C=C/[C@@H](C)O[C@@H]1O[C@H](CO)[C@@H](O)[C@H](O)[C@H]1O [RosS, roseoside]"
3,284 nM,"O=c1cc(-c2ccc(O)cc2)oc2c([C@@H]3O[C@H](CO)[C@@H](O)[C@H](O)[C@H]3O)c(O)c([C@@H]3O[C@H](CO)[C@@H](O)[C@H](O)[C@H]3O)c(O)c12 [Vic-2, vicenin-2]"
